Holding throughout (type): biochemical
Assay [1] has as its target T1, MMP-2 (Homo sapiens, UniProt P08253).
T1 sequence (P08253 110-660): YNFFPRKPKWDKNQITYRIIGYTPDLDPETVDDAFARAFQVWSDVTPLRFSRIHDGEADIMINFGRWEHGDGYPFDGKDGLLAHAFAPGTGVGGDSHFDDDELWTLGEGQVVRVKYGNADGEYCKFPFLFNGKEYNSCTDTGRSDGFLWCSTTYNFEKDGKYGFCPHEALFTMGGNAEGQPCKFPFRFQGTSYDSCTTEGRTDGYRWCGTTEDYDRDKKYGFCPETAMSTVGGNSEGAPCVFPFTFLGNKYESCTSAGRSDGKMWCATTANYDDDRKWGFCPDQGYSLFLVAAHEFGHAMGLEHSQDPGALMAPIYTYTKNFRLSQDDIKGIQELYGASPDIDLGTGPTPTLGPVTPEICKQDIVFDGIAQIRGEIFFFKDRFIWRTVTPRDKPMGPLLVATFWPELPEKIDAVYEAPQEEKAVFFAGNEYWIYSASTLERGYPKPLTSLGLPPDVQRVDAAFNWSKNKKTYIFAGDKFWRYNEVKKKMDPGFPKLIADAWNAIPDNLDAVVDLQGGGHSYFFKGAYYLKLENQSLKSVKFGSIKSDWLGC
Description: Automated MMP Profiling Assay, MMP-2 fluorogenic. The note with it: for IC50: 96-well automated, P218, read-out: MMP-2 Fluorogenic IC50 (profiling).

Assay [2] addresses T2, MMP-9 (Homo sapiens, UniProt P14780).
T2 construct: from tissue; host or cells: human polymorphonuclear leukocytes (PMN) from whole blood (New York Blood Center), PMA-stimulated supernatant
As to the kind of experiment: Automated MMP Profiling Assay, MMP-9 fluorogenic. The conditions noted are these: for IC50: 96-well automated, P218.

Assay [3] concerns the target T3, MMP-3 (Homo sapiens, UniProt P08254).
T3 construct: Truncated Prostromelysin-257 was expressed in a soluble form in E.coli; made in house; host or cells: E. coli
As to the kind of experiment: Automated MMP Profiling Assay, MMP-3 fluorogenic. The note with it: for IC50: 96-well automated, P218. The text has this:
This assay with each invention compound was run with the three enzymes MMP-3, MMP-9 and MMP-2 in parallel as adapted for a 96-well microtitre plate using a Hamilton A® workstation.

The structures appear in SMILES notation.

Broadly, the IC50 is the concentration needed to halve the response being measured. One may read the inhibition as the share of the control response that was lost under treatment. A higher inhibition goes with a response far below the control.

T3 sequence (P08254 100-274 limits assumed): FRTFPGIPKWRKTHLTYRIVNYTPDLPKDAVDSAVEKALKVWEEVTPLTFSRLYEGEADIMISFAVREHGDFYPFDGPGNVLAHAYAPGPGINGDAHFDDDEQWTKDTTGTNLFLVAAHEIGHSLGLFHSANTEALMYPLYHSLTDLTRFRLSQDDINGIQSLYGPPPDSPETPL
T2 sequence (P14780 107-707 limits assumed): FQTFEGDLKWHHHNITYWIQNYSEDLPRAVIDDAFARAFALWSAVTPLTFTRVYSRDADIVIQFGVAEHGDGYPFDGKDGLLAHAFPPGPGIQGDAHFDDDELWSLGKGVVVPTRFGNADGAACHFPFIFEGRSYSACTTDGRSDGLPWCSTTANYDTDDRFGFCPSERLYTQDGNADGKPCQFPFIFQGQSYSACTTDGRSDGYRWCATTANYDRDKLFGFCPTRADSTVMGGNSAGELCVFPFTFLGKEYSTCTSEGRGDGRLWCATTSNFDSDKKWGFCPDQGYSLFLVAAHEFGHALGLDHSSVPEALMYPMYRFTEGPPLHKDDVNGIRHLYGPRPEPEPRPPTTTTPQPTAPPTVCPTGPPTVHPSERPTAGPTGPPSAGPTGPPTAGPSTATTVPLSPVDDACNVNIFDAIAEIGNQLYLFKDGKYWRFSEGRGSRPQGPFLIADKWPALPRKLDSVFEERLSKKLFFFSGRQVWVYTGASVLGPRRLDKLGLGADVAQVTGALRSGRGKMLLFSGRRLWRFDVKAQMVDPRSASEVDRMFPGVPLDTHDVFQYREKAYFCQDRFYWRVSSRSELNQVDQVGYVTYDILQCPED

As to `CC(=O)O[C@@H]1C[C@H](C(=O)c2ccc(-c3ccc(Cl)cc3)cc2)[C@H]1C(=O)O` (relative stereo) [Example 396, Cyclobutanecarboxylic acid, 2-(acetyloxy)-4-[(4'-chloro[1,1'-biphenyl]-4-yl)carbonyl]-, (1α,2β,4β)-], the IC50 in assay [1] turned out to be 0.362 µM; in assay [2], 2.29 µM; in assay [3], 0.779 µM.

Turning to `CCCCC#Cc1ccc(-c2ccc(C(=O)CC(CCCc3ccccc3)C(=O)O)cc2)cc1` (stereo not drawn) [Example 352, [1,1'-Biphenyl]-4-butanoic acid, 4'-(1-hexynyl)-γ-oxo-α-(3-phenylpropyl)-], the IC50 in assay [1] stood at 0.061 µM; in assay [2], 0.905 µM; in assay [3], 0.13 µM.

For `COC/C=C\c1ccc(-c2ccc(C(=O)CC(CCCc3ccccc3)C(=O)O)cc2)cc1` (stereo not drawn) [Example 354, [1,1'-Biphenyl]-4-butanoic acid, 4'-(3-methoxy-1-propenyl)-γ-oxo-α-(3-phenylpropyl)-, (Z)-], the half-inhibitory concentration (IC50) in assay [1] is 0.076 µM; in assay [2] it was 1.71 µM; in assay [3], 0.577 µM.

Take `Cc1cccc(C)c1SCC(CC(=O)c1ccc(-c2ccc(Cl)cc2)cc1)C(=O)O` (stereo not drawn) [Example 433, [1,1'-Biphenyl]-4-butanoic acid, 4'-chloro-α-[[(2,6-dimethylphenyl)thio]methyl]-γ-oxo-]: the half-maximal inhibitory concentration (IC50) in assay [1] is 0.0062 µM; in assay [2] it was 0.13 µM; in assay [3] it was 0.103 µM.

Regarding `CCCCCOc1ccc(-c2ccc(C(=O)CC(CCc3cccc(I)c3)C(=O)O)cc2)cc1` (stereo not drawn) [Example 162, [1,1'-Biphenyl]-4-butanoic acid, α-[2-(3-iodophenyl)ethyl]-γ-oxo-4'-(pentyloxy)-], the figures for the 50% inhibitory concentration (IC50) in assay [1] and in assay [3] were 0.022 µM and 0.181 µM, respectively. The same molecule came in with an inhibition at 5 µM in assay [2] of 8%.

Consider `O=C(O)[C@H]1[C@H](COc2ccccc2)CC[C@@H]1C(=O)c1ccc(-c2ccc(Cl)cc2)cc1` (relative stereo) [Example 366, Cyclopentanecarboxylic acid, 2-[(4'-chloro[1,1'-biphenyl]-4-yl)carbonyl]-5-(phenoxymethyl)-, (1α,2β,5β)-], for which the figures for the IC50 in assay [1], in assay [2] and in assay [3] were 0.0067 µM, 0.056 µM and 0.022 µM, respectively.

With `CC(C)(C)OC(=O)Nc1ccc(-c2ccc(C(=O)CC(CCc3ccccc3)C(=O)O)cc2)cc1` (stereo not drawn) [Example 138, [1,1'-Biphenyl]-4-butanoic acid, 4'-[[(1,1-dimethylethoxy)carbonyl]amino]-γ-oxo-α-(2-phenylethyl)-], the IC50 in assay [1] was found to be 0.665 µM; in assay [3], 0.905 µM. This molecule also yielded an inhibition at 5 µM in assay [2] of 0%.

Take `CCCC/C=C\c1ccc(-c2ccc(C(=O)CC(CCCc3ccccc3)C(=O)O)cc2)cc1` (stereo not drawn) [Example 356, [1,1'-Biphenyl]-4-butanoic acid, 4'-(1-hexenyl)-γ-oxo-α-(3-phenylpropyl)-, (Z)-]: in assay [1], the IC50 was found to be 0.188 µM. Further, the inhibition at 5 µM in assay [2] stood at 14%; in assay [3], 45%.

As to `O=C(C[C@@H](CCCc1ccccc1)C(=O)O)c1ccc(-c2ccc(OCc3ccccc3)cc2)cc1` [Example 101, 4-[4-(4-benzyloxyphenyl)phenyl]-4-oxo-2R-(3-phenylpropyl)butanoic acid], in assay [1], the IC50 is 3.32 µM. Also, the inhibition at 5 µM amounted to 10% in assay [2] and 45% in assay [3].

Consider `O=C(CC(CCSc1ccccc1)C(=O)O)c1ccc(-c2ccc(Cl)cc2)cc1` (stereo not drawn) [Example 426, [1,1'-Biphenyl]-4-butanoic acid, 4'-chloro-γ-oxo-α-[2-(phenylthio)ethyl]-], for which the IC50 in assay [1] was determined as 0.035 µM; in assay [2], 0.417 µM; in assay [3], 0.161 µM.

Take `O=C(O)c1ccc(CCC(CC(=O)c2ccc(-c3ccc(Cl)cc3)cc2)C(=O)O)cc1` (stereo not drawn) [Example 153, [1,1'-Biphenyl]-4-butanoic acid, α-[2-(4-carboxyphenyl)ethyl]-4'-chloro-γ-oxo-]: the figures for the IC50 in assay [1], in assay [2] and in assay [3] were 0.127 µM, 1.01 µM and 0.594 µM, respectively.

On to `O=C(CC(CCCc1ccccc1)C(=O)O)c1ccc(-c2ccc(OCc3ccccc3)cc2)cc1` (stereo not drawn) [Example 99, 4-[4-(4-benzyloxyphenyl)phenyl]-4-oxo-2-(3-phenylpropyl)butanoic acid], for which the figures for the IC50 in assay [1], in assay [2] and in assay [3] were 0.026 µM, 0.835 µM and 0.036 µM, respectively.

`CCCCCSc1ccc(-c2ccc(C(=O)CC(CCCc3ccccc3)C(=O)O)cc2)cc1` (stereo not drawn) [Example 72, [1,1'-Biphenyl]-4-butanoic acid, γ-oxo-4'-(pentylthio)-α-(3-phenylpropyl)-]: the IC50 in assay [1] came out at 0.09 µM; in assay [3] it was 0.409 µM. This molecule also returned an inhibition at 5 µM in assay [2] of 22%.

For the molecule `CCOc1ccc(-c2ccc(C(=O)CC(CCc3ccccc3)C(=O)O)cc2)cc1` (stereo not drawn) [Example 156, [1,1'-Biphenyl]-4-butanoic acid, 4'-ethoxy-γ-oxo-α-(2-phenylethyl)-], the results for the IC50 in assay [1], in assay [2] and in assay [3] were 0.021 µM, 0.145 µM and 0.126 µM, respectively.

With `O=C(CC(CCN1C(=O)c2cccc3cccc(c23)C1=O)C(=O)O)c1ccc(-c2ccc(Cl)cc2)cc1` (stereo not drawn) [Example 410, 1H-Benz[de]isoquinoline-2(3H)-butanoic acid, α-[2-(4'-chloro[1,1'-biphenyl]-4-yl)-2-oxoethyl]-1,3-dioxo-], the figures for the IC50 in assay [1], in assay [2] and in assay [3] were 0.08 µM, 0.044 µM and 0.104 µM, respectively.

Consider `O=C(O)[C@H]1[C@H](CN2C(=O)c3ccccc3C2=O)CC[C@@H]1C(=O)c1ccc(-c2ccc(Cl)cc2)cc1` (relative stereo) [Example 360, trans-5-[4-(4-chlorophenyl)phenylcarbonyl]-trans-2-phthalimidomethylcyclopentanecarboxylic acid], for which the IC50 in assay [1] worked out at 0.00146 µM; in assay [2], 0.00093 µM; in assay [3] it was 0.00546 µM.

With `CC(=O)O[C@H]1C[C@@H](C(=O)c2ccc(-c3ccc(Cl)cc3)cc2)[C@H]1C(=O)O` (relative stereo) [Example 393, Cyclobutanecarboxylic acid, 2-(acetyloxy)-4-[(4'-chloro[1,1'-biphenyl]-4-yl)carbonyl]-, (1α,2α,4α)-], the half-maximal inhibitory concentration (IC50) in assay [1] was 2 µM. Also, the inhibition at 5 µM is 38% in assay [2] and 18% in assay [3].

As to `O=C(CC(CCCc1ccccc1)C(=O)O)c1ccc(-c2ccc(CCc3ccccc3)cc2)cc1` (stereo not drawn) [Example 359, [1,1'-Biphenyl]-4-butanoic acid, 4'-γ-oxo-4'-(2-phenylethyl)-α-(3-phenylpropyl)-], the IC50 was determined as 0.051 µM in assay [1] and 0.083 µM in assay [3]. Also, in assay [2], the inhibition at 5 µM was determined as 16%.

In the case of `O=C(O)[C@H]1[C@H](CN2C(=O)c3ccc([N+](=O)[O-])cc3C2=O)CC[C@@H]1C(=O)c1ccc(-c2ccc(Cl)cc2)cc1` (relative stereo) [Example 386, Cyclopentanecarboxylic acid, 2-[(4'-chloro[1,1'-biphenyl]-4-yl)carbonyl]-5-[(1,3-dihydro-5-nitro-1,3-dioxo-2H-isoindol-2-yl)methyl]-, (1α,2β,5β)-], the IC50 in assay [1] was 0.0117 µM; in assay [2], 0.00097 µM; in assay [3], 0.00834 µM.

As to `CC(=O)NC(CC(=O)c1ccc(-c2ccc(Cl)cc2)cc1)C(=O)O` (stereo not drawn) [Example 430, [1,1'-Biphenyl]-4-butanoic acid, α-(acetylamino)-4'-chloro-γ-oxo-], in assay [1], the IC50 is 0.419 µM. For the same molecule, the inhibition at 5 µM in assay [2] was 37%; in assay [3] it was 28%.

Regarding `O=C(CC(CCCCN1C(=O)c2ccccc2C1=O)C(=O)O)c1ccc(-c2ccc(Cl)cc2)cc1` (stereo not drawn) [Example 431, 2H-Isoindole-2-hexanoic acid, α[2-(4'-chloro[1,1'-biphenyl]-4-yl)-2-oxoethyl]-1,3-dihydro-1,3-dioxo-], the IC50 in assay [1] amounted to 0.016 µM; in assay [2], 0.05 µM; in assay [3] it was 0.038 µM.

Turning to `CCCCCOc1ccc(-c2ccc(C(=O)[C@H]3CC[C@@H](Sc4ccccc4)[C@@H]3C(=O)O)cc2)cc1` (single isomer, unassigned) [Example 320, Cyclopentanecarboxylic acid, 2-[[4'-(pentyloxy)[1,1'-biphenyl]-4-yl]carbonyl]-5-(phenylthio)-, (1α,2β,5β)-(-)-], the inhibition at 5 µM in assay [1] (at 5 μM) is 24%; in assay [2], 6%; in assay [3], 6%.

Regarding `COc1ccccc1C(=O)OC[C@@H]1CC[C@H](C(=O)c2ccc(-c3ccc(Cl)cc3)cc2)[C@H]1C(=O)O` (relative stereo) [Example 381, Benzoic acid, 2-methoxy-, [2-carboxy-3-[(4'-chloro[1,1'-biphenyl]-4-yl)carbonyl]cyclopentyl]methyl ester, (1α,2β,3α)-], the IC50 in assay [1] came to 0.044 µM; in assay [2] it was 0.097 µM; in assay [3], 0.046 µM.

(Values after patent publication US5789434A, “Derivatives of substituted 4-biarylbutyric acid as matrix metalloprotease inhibitors” (priority 1995, dated 1998).)
